The supplement of paper PMC10307832

Experiments:
Assay in all cases: relative viability (nuclei count vs DMSO), 5 days (fraction); higher = more cells survive
[1] = compound: C[C@@H](C(=O)N[C@@H](C1CCCCC1)C(=O)N2CCC[C@H]2C(=O)N[C@@H]3[C@@H](CC4=CC=CC=C34)OCC#CC#CCO[C@@H]5CC6=CC=CC=C6[C@@H]5NC(=O)[C@@H]7CCCN7C(=O)[C@H](C8CCCCC8)NC(=O)[C@H](C)NC)NC [AZD5582] + CC(C)C[C@H](NC(=O)[C@H](Cc1ccccc1)NC(=O)c1cnccn1)B(O)O [Bortezomib] (partner 0.002 µM)
Summary of the method: (§1)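 Relative viability divides the nuclei count in treated wells by that in vehicle wells. Lung cancer cell lines were seeded in 1536-well plates, dosed by pin tool the next day, and fixed and stained after 5 days in one step with final 0.05% Triton X-100, 1% formaldehyde and 1 ug/ml Hoechst. Dosing was a single drug or a fixed anchor-drug dose plus five library-drug doses (not always all listed) in √10 steps, and values are medians of duplicate plates imaged at 4×.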

[2] = compound: C[C@@H](C(=O)N[C@@H](C1CCCCC1)C(=O)N2CCC[C@H]2C(=O)N[C@@H]3[C@@H](CC4=CC=CC=C34)OCC#CC#CCO[C@@H]5CC6=CC=CC=C6[C@@H]5NC(=O)[C@@H]7CCCN7C(=O)[C@H](C8CCCCC8)NC(=O)[C@H](C)NC)NC [AZD5582] + O=C(CCCCCCC(=O)Nc1ccccc1)NO [Vorinostat] (partner 1 µM)
Summary of the method: as §1

[3] = compound: Cn1nnc2c(C(N)=O)ncn2c1=O [Temozolomide] + N=C(N)NC(=N)NCCc1ccccc1 [Phenformin] (partner 250 µM)
Summary of the method: as §1

[4] = compound: Cn1nnc2c(C(N)=O)ncn2c1=O [Temozolomide] + NC(=O)Nc1cc(-c2cccc(F)c2)sc1C(=O)N[C@H]1CCCNC1 [AZD7762] (partner 0.2 µM)
Summary of the method: as §1

Cell Line	relative viability ([1]; first compound 0.001581 µM)	relative viability ([1]; first compound 0.005 µM)	relative viability ([1]; first compound 0.01581 µM)	relative viability ([1]; first compound 0.05 µM)	relative viability ([2]; first compound 0.001581 µM)	relative viability ([2]; first compound 0.005 µM)	relative viability ([2]; first compound 0.01581 µM)	relative viability ([2]; first compound 0.05 µM)	relative viability ([3]; first compound 0.2 µM)	relative viability ([3]; first compound 0.6325 µM)	relative viability ([3]; first compound 2 µM)	relative viability ([3]; first compound 6.325 µM)	relative viability ([3]; first compound 20 µM)	relative viability ([4]; first compound 0.2 µM)	relative viability ([4]; first compound 0.6325 µM)	relative viability ([4]; first compound 2 µM)	relative viability ([4]; first compound 6.325 µM)	relative viability ([4]; first compound 20 µM)
201T	1.1	1.16	1.07	1.17	1.05	1.11	0.919	1.22	0.491	0.449	0.497	0.376	0.456	0.648	0.649	0.746	0.566	0.519
A549	–	–	–	–	–	–	–	–	–	0.161	0.136	0.147	0.177	–	–	–	–	–
A-427	0.92	0.954	0.938	0.891	0.816	0.862	0.885	0.904	0.314	0.364	0.39	0.246	0.267	0.758	0.744	0.698	0.472	0.422
ABC-1	0.282	0.275	0.291	0.261	1.22	1.57	0.934	1.08	0.241	0.232	0.24	0.213	0.237	0.712	0.761	0.761	0.762	0.763
BEN	0.786	0.87	0.911	0.579	0.53	0.568	0.591	0.555	0.286	0.288	0.229	0.27	0.26	0.712	0.616	0.779	0.689	0.678
CAL-12T	0.777	0.746	0.448	0.668	0.533	0.703	0.644	0.754	0.657	0.612	0.529	0.574	0.558	0.645	0.618	0.628	0.657	0.699
COR-L23	0.942	1.02	1.07	1.09	0.404	0.495	0.452	0.587	0.511	0.475	0.437	0.462	0.428	–	–	–	–	–
COR-L 105	0.768	0.877	0.69	0.827	0.843	0.912	0.727	0.878	0.452	0.603	0.594	0.452	0.305	–	–	–	–	–
Calu-6	0.917	0.813	0.988	0.551	–	–	–	–	–	–	–	–	–	–	–	–	–	–
ChaGo-K-1	0.988	0.985	0.93	0.982	0.718	0.767	0.711	0.739	0.595	0.484	0.617	0.413	0.509	0.939	0.902	0.922	0.858	0.904
EBC-1	0.434	0.39	0.528	0.389	–	–	–	–	–	–	–	–	–	–	–	–	–	–
EKVX	1.02	1.02	0.934	0.575	0.72	0.934	–	0.932	0.185	0.232	0.232	0.236	0.216	–	0.743	0.681	0.67	0.418
EMC-BAC-2	1.01	1.04	1.02	0.354	0.406	0.474	0.375	0.546	0.604	0.479	0.586	0.458	0.564	1.12	1.17	1.15	1.08	1.12
EPLC-272H	0.833	0.396	0.87	0.277	–	–	0.429	0.074	0.156	0.305	0.332	0.461	0.28	0.194	0.259	0.418	0.217	0.208
H3255	0.823	0.879	0.385	0.552	0.831	0.976	0.722	0.48	–	0.385	0.344	0.403	0.185	–	0.839	0.878	0.808	0.257
HARA	1.09	1.11	1.06	1.07	0.659	0.69	0.441	0.672	0.446	0.493	0.401	0.414	0.394	0.358	0.322	0.299	0.395	0.305
HCC-15	0.921	1.01	0.864	0.975	0.762	0.883	0.752	0.967	0.502	0.531	0.519	0.418	0.513	1.53	1.18	1.29	1.32	1.4
HCC-44	0.711	0.722	0.918	0.553	1.04	1.01	1.08	1.04	0.194	0.238	0.17	0.185	0.315	1.03	1	1.03	1.11	1.05
HCC-78	0.367	0.604	0.421	0.479	0.414	0.493	0.438	0.366	0.701	0.755	0.713	0.656	0.751	0.668	0.568	0.899	–	0.566
HCC-366	0.982	1.1	1.01	1.19	0.239	0.398	0.186	0.425	0.639	0.647	0.631	0.621	0.62	0.286	0.258	0.376	0.311	0.338
HCC-827	0.974	1.05	0.901	1.07	0.771	0.892	0.694	0.822	0.248	0.443	0.397	0.41	0.131	0.147	0.193	0.196	0.227	0.119
IA-LM	0.704	0.679	0.829	0.74	0.772	0.907	–	1	–	–	–	–	–	–	–	–	–	–
LK-2	–	–	–	–	0.269	0.295	0.236	0.304	0.502	0.568	0.455	0.179	0.194	0.444	0.372	0.404	0.254	0.271

Cell Line	relative viability ([1]; first compound 0.001581 µM)	relative viability ([1]; first compound 0.005 µM)	relative viability ([1]; first compound 0.01581 µM)	relative viability ([1]; first compound 0.05 µM)	relative viability ([2]; first compound 0.001581 µM)	relative viability ([2]; first compound 0.005 µM)	relative viability ([2]; first compound 0.01581 µM)	relative viability ([2]; first compound 0.05 µM)	relative viability ([3]; first compound 0.2 µM)	relative viability ([3]; first compound 0.6325 µM)	relative viability ([3]; first compound 2 µM)	relative viability ([3]; first compound 6.325 µM)	relative viability ([3]; first compound 20 µM)	relative viability ([4]; first compound 0.2 µM)	relative viability ([4]; first compound 0.6325 µM)	relative viability ([4]; first compound 2 µM)	relative viability ([4]; first compound 6.325 µM)	relative viability ([4]; first compound 20 µM)
NCI-H358	–	–	–	–	0.639	0.745	0.678	0.714	0.21	0.425	0.367	0.296	0.257	–	0.466	0.533	0.408	0.369
NCI-H520	0.702	0.826	0.432	0.757	0.833	0.724	0.758	0.712	0.589	0.548	0.675	0.499	0.589	–	–	–	–	–
NCI-H522	–	–	–	–	0.764	0.827	0.828	0.957	0.653	0.664	0.728	0.626	0.629	0.728	0.907	0.952	0.748	0.758
NCI-H661	0.752	0.927	0.702	0.921	0.742	0.786	0.806	0.762	0.252	0.277	0.247	0.279	0.27	–	–	–	–	–
NCI-H1299	1.01	1.08	1.04	0.99	–	–	–	–	–	–	–	–	–	–	–	–	–	–
NCI-H1395	–	–	–	–	0.721	0.789	–	0.768	0.458	0.428	0.494	0.435	0.461	0.385	0.381	0.454	0.332	0.362
NCI-H1563	0.765	0.887	0.788	1.25	–	–	–	–	0.671	0.689	0.668	0.602	0.643	–	–	–	–	–
NCI-H1623	–	–	–	–	–	–	–	–	–	0.646	0.521	0.563	0.309	–	–	–	–	–
NCI-H1648	–	–	–	–	0.415	0.441	–	0.476	–	–	–	–	–	–	0.643	0.756	0.583	0.614
NCI-H1650	0.166	0.192	0.188	0.169	0.528	0.534	0.576	0.572	0.458	0.468	0.446	0.424	0.311	–	–	–	–	–
NCI-H1792	0.92	1.02	0.892	1.22	–	–	–	–	0.61	0.352	0.328	0.155	0.271	0.9	0.775	0.711	0.532	0.676
NCI-H1793	–	–	–	–	0.767	0.927	0.565	0.587	–	0.359	0.394	0.297	0.323	–	0.414	0.605	0.401	0.411
NCI-H1944	–	–	–	–	0.464	0.641	0.542	0.619	0.219	0.183	0.233	0.19	0.2	0.432	0.505	0.391	0.441	0.696
NCI-H2009	0.838	1.13	0.61	0.9	0.695	0.743	0.711	0.792	0.521	0.482	0.534	0.402	0.487	–	–	–	–	–
NCI-H2023	0.934	1.1	0.721	0.716	0.508	0.725	0.627	0.643	0.431	0.442	0.467	0.401	0.449	–	–	–	–	–
NCI-H2170	–	–	–	–	0.683	0.834	0.787	0.91	–	0.422	0.448	0.349	0.327	–	0.951	0.733	0.466	0.295
NCI-H2228	0.857	1.34	1.36	0.439	0.81	0.702	0.667	0.645	0.411	0.508	0.307	0.3	0.351	–	–	–	–	–
NCI-H2342	–	–	–	–	0.789	0.778	0.751	0.785	0.57	0.629	0.625	0.662	0.563	0.457	0.447	0.516	0.506	0.549
SK-LU-1	0.436	0.697	0.856	0.477	0.7	0.505	0.824	0.292	0.635	0.57	0.461	0.296	0.258	–	–	–	–	–
SK-MES-1	–	–	–	–	1.08	1.19	1.02	1.26	0.752	0.68	0.7	0.729	0.682	–	–	–	–	–
SW 900	–	–	–	–	0.435	0.444	0.364	0.295	0.754	0.671	0.556	0.464	0.718	0.587	0.63	0.583	0.627	0.683
SW 1573	1.3	0.996	1.04	1.43	0.492	0.865	1.12	1.12	0.348	0.384	0.457	0.367	0.348	–	–	–	–	–
UMC-11	0.677	0.873	0.733	0.709	0.396	0.391	0.381	0.354	0.378	0.357	0.378	0.326	0.301	–	–	–	–	–
